Experimental data from PMC3454376, “Salidroside Improves Behavioral and Histological Outcomes and Reduces Apoptosis via PI3K/Akt Signaling after Experimental Traumatic Brain Injury” (PLoS ONE, 2012).

Tests used:
[1] = Metabolic characteristics: serum BUN, CRE, ALT; assay type: in vivo, mice; settings: for BUN / CRE: mean ± SEM, n = 4–5 mice/group
Procedure: Three sets of experiments were performed. The first set was to investigate the protective effects of salidroside. All animals were randomized into 1 of 3 groups (sham injury, CCI + vehicle, CCI + SALD 20). Surgery/injury, behavioral testing, and tissue analyses were performed by different individuals. Behavioral testing and tissue analyses were performed by individuals blinded to the treatment group. Salidroside (Cayman Chemical, Ann Arbor, MI, USA) dissolved in normal saline (0.25 mL) or a corresponding volume of vehicle (saline) was administered intraperitoneally 10 min following injury. Testing after injury was completed as follows: 1) behavioral testing at days 1, 4, 7, 14, 21, and 28 (n = 8–10 mice/group); 2) cresyl violet staining at day 28 (n = 9 mice/group); 3) histology, determination of brain water content, and western blot analysis at day 1 or 3 (n = 5–6 mice/group). To determine the optimal dose of salidroside, a pilot study was performed using 2 different doses (20 and 50 mg/kg) administered 10 min after injury, and neurological deficits and tissue damage were evaluated as the main outcomes. […] The second set of experiment was to assess the effect of the inhibition of PI3K/Akt with the specific PI3K inhibitor, LY294002 (Cell Signaling Technology, Danvers, MA, USA), on salidroside effects. Animals were randomized into 4 groups. Mice received either: 1) icv pretreatment of LY294002 followed by SALD 20 after CCI (S20Y group); or 2) icv pretreatment of saline (vehicle control) followed by SALD 20 after CCI (S20V group). 3) Mice were infused icv with saline and were subjected to sham injury. 4) Mice were infused icv with LY294002 and were subjected to sham injury. Testing after injury was completed as follows: 1) cresyl violet staining at day 28 (n = 6 mice/group); 2) western blot analysis at day 1 (n = 6 mice/group). The third set of experiment was performed to examine the neuroprotective time window afforded by salidroside. Mice received intraperitoneal SALD 20 or vehicle (saline) at 3 or 6 h following CCI and were sacrificed 1 day later for FJB staining and western blot analysis (n = 6 mice/group).
Following terminal anesthesia, venous blood was collected via direct right atrial puncture. The obtained blood was centrifuged (3500 rpm for 5 min), and the serum was stored at −20°C until analysis. A chemistry analyzer (Synchron Clinical System LX20; Beckman Coulter, Fullerton, CA, USA) was used to measure serum BUN and CRE to assess renal function, and ALT to assess liver function.

[2] = tested on: mice subjected to controlled cortical impact injury; assay: Fluoro-Jade B staining of degenerating neurons; assay type: in vivo; settings: day 1
Procedure: All animal procedures were approved by the Animal Research Committee at Cheng Hsin General Hospital (Animal permit number […] 101-08), and all procedures complied with the Guide for the Care and Use of Laboratory Animals published by the US National Institutes of Health (NIH Publication No. 85-23, revised 1996). Animals were housed under a 12-h light/dark cycle and at constant temperature (21-25°C) and humidity (45-50%). They were allowed free access to pellet chow and water. TBI in mice was induced by a CCI injury model as previously described. Briefly, 8-week-old male C57BL/6 mice (weighing 22-25 g) were anesthetized through the use of intraperitoneal injection of sodium pentobarbital (65 mg/kg; Rhone Merieux, Harlow, UK) and placed in a stereotaxic frame. A 5 mm craniotomy was performed over the right parietal cortex, centered on the coronal suture and 0.1 mm lateral to the sagittal suture, and injury to dura was avoided. Injury was induced using a pneumatic piston with a rounded metal tip (2.5 mm diameter) that was angled 22.5° to the vertical so that the tip was perpendicular with the brain surface at the center of the craniotomy. The impact, with a velocity of […] and a deformation depth of 2 mm below the dura, was applied. The bone flap was immediately replaced and sealed, and the scalp was sutured. Body temperature was monitored throughout the surgery by a rectal probe; temperature was maintained at 37.0±0.5°C using a heated pad. Mice were placed in a heated cage to maintain body temperature, while recovering from anesthesia. Sham-operated mice underwent the same procedure as injured mice, but without CCI. Three sets of experiments were performed. The first set was to investigate the protective effects of salidroside. All animals were randomized into 1 of 3 groups (sham injury, CCI + vehicle, CCI + SALD 20). Surgery/injury, behavioral testing, and tissue analyses were performed by different individuals. Behavioral testing and tissue analyses were performed by individuals blinded to the treatment group. Salidroside (Cayman Chemical, Ann Arbor, MI, USA) dissolved in normal saline (0.25 mL) or a corresponding volume of vehicle (saline) was administered intraperitoneally 10 min following injury. Testing after injury was completed as follows: 1) behavioral testing at days 1, 4, 7, 14, 21, and 28 (n = 8-10 mice/group); 2) cresyl violet staining at day 28 (n = 9 mice/group); 3) histology, determination of brain water content, and western blot analysis at day 1 or 3 (n = 5-6 mice/group). To determine the optimal dose of salidroside, a pilot study was performed using 2 different doses (20 and 50 mg/kg) administered 10 min after injury, and neurological deficits and tissue damage were evaluated as the main outcomes. […] The second set of experiment was to assess the effect of the inhibition of PI3K/Akt with the specific PI3K inhibitor, LY294002 (Cell Signaling Technology, Danvers, MA, USA), on salidroside effects. Animals were randomized into 4 groups. Mice received either: 1) icv pretreatment of LY294002 followed by SALD 20 after CCI (S20Y group); or 2) icv pretreatment of saline (vehicle control) followed by SALD 20 after CCI (S20V group). 3) Mice were infused icv with saline and were subjected to sham injury. 4) Mice were infused icv with LY294002 and were subjected to sham injury. Testing after injury was completed as follows: 1) cresyl violet staining at day 28 (n = 6 mice/group); 2) western blot analysis at day 1 (n = 6 mice/group). The third set of experiment was performed to examine the neuroprotective time window afforded by salidroside. Mice received intraperitoneal SALD 20 or vehicle (saline) at 3 or 6 h following CCI and were sacrificed 1 day later for FJB staining and western blot analysis (n = 6 mice/group). […]

Which “plasma concentrations of BUN, CRE, ALT (effect of treatment)” value ([1]; 20 mg/kg) does the source give for `OC[C@H]1O[C@@H](OCCc2ccc(O)cc2)[C@H](O)[C@@H](O)[C@@H]1O` [SALD, salidroside] here?
Its value is “did not alter”.

And the BUN ([1]; SALD 20 mg/kg)?
The BUN was 23.2 ± 2.49 mg/dL.

What about the CRE ([1]; SALD 20 mg/kg) of the same molecule?
Its CRE is 0.17 ± 0.01 mg/dL.

And the BUN ([1]; SALD 50 mg/kg)?
The BUN was 28.06 ± 4.5 mg/dL.

And the CRE ([1]; SALD 50 mg/kg)?
Its CRE is 0.16 ± 0.04 mg/dL.

And the “FJB-positive neurons around the injured cortical area” value ([2]; 20 mg/kg ip 10 min after CCI, vehicle 87.9±5.9, P<0.01)?
The value was 55.1±6.9 cells/field.

What about the “reduction of the number of FJB-positive neurons” value ([2]; 20 mg/kg ip 10 min after injury) of the same molecule?
The value was 37.3%.

What about the “reduction of neuronal damage (FJB)” value ([2]; 20 mg/kg ip 3 h after injury) of the same molecule?
The value was 21.9%.

What about the “FJB-positive neurons around the injured cortical area” value ([2]; 20 mg/kg ip 3 h after injury, vehicle 91.2±3.3, P<0.001) of the same molecule?
Its value is 71.2±2.7 cells/field.

And the “reduction of neuronal damage (FJB)” value ([2]; 20 mg/kg ip 6 h after injury)?
Its value is 22.8%.

And the “FJB-positive neurons around the injured cortical area” value ([2]; 20 mg/kg ip 6 h after injury, vehicle 92.9±3.3, P<0.001)?
The value was 71.7±1.6 cells/field.
